Experimental data published in PMC6273932, “Xanthium strumarium as an Inhibitor of α-Glucosidase, Protein Tyrosine Phosphatase 1β, Protein Glycation and ABTS^+ for Diabetic and Its Complication” (Molecules, 2016).
Values after ≈ are worked out from the molar mass of the structure shown.

Key:
[1] = test system: PTP1β; design: method as in ref 16 (Hwang et al.); conditions: compounds isolated from Zea mays L., ref 16 (Hwang et al.), cited from earlier work
[2] = molecular target: α-glucosidase; design: method as in ref 15 (Chen et al.); conditions: compounds isolated from aerial parts of Gynura divaricate; ref 15 (Chen et al.); read-out: inhibitory effects against α-glucosidase; cited from earlier work
[3] = test system: recombinant aldose reductase; conditions: compounds from X. strumarium; cited from earlier work
[4] = molecular target: T1, protein tyrosine phosphatase 1β (PTP1β) (Homo sapiens, UniProt P18031); test: PTP1β inhibitory activity assay (colorimetric kit, IR5 phosphopeptide substrate); type: biochemical
T1 sequence (P18031 1-322 limits assumed): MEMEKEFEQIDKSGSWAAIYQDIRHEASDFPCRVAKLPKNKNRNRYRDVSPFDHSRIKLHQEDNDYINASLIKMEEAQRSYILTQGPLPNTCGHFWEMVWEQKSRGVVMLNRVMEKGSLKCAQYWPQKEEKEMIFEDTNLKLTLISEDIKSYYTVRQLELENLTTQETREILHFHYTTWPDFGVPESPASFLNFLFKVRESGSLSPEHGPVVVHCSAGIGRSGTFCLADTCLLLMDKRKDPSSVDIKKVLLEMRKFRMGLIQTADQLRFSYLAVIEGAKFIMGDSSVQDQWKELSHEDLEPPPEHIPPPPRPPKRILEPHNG
Method: PTP1β tyrosine phosphatase drug discovery kit is a colorimetric, non-radioactive assay designed to measure the phosphatase activity of purified PTP1β. […] Following incubation at 37 °C for 30 min, the reaction was terminated with the BIOMOL RED^TM reagent. The amount of […] produced was estimated by measuring the absorbance at 620 nm. The non-enzymatic hydrolysis of the IR5 substrate was corrected by measuring the increase in absorbance at 620 nm obtained in the absence of PTP1β enzyme.

[5] = test system: rat lens aldose reductase; conditions: compounds from X. strumarium; cited from earlier work
[6] = test system: advanced glycation end products (AGEs); test: AGEs inhibitory activity, bovine serum albumin-methylglyoxal assay (fluorescence); type: biochemical
Method: The modified procedure of Lee et al. was followed. Bovine serum albumin (10 mg/mL) was incubated with 5 mM methylglyoxal in sodium phosphate buffer (100 mM; pH 7.4). […] All of the reagents and samples were […] by filtration through 0.2 μm membrane filters and the mixture was incubated at 37 °C for 7 days. The fluorescence intensity was measured at an excitation wavelength of 330 nm and an emission wavelength of 410 nm with a LS50B fluorescence spectrometer Perkin-Elmer Ltd., (Buckinghamshire, FLS, UK). Aminoguanidine was also tested as a known inhibitor.

[7] = test system: AGEs; design: method as in PMID 20118563; conditions: isolated from the extracts of Erigeron annuus; cited from earlier work
[8] = ABTS^+ radical scavenging activity assay
Method: The method described by Li et al. was used with slight modifications. ABTS^+ diammonium salt (2 mM) and potassium persulfate (3.5 mM) were mixed, diluted in distilled water and kept in the dark at room temperature for 24 h before use. After addition of ABTS^+ solution to 10 µL of antioxidant, measurements were recorded at 10 min post reaction. The percentage inhibition of absorbance at 750 nm was calculated and plotted as a function of concentration of antioxidants. Trolox was used as positive control.

[9] = test system: α-glucosidase from Saccharomyces sp.; test: α-glucosidase inhibitory activity assay (pNPG substrate, absorbance 405 nm); type: biochemical
From the text: ^1H- and ^13C-NMR spectra and correlation NMR spectra such as COSY, HMBC, HMQC, and DEPT were obtained from a Bruker Avance DPX 400 (or 600) spectrometer (Berlin, Germany). These were obtained at operating frequencies of 400 MHz (^1H) and 100 (or 150) MHz (^13C) with CD3OD, (CD3)2SO, (CD3)2CO, or D2O and TMS was used as an internal standard; chemical shifts were reported in δ values. The α-glucosidase from Saccharomyces sp. (SSG) was purchased from Wako Pure Chemical Industries Ltd (Tokyo, Japan). […] All other chemicals and reagents used were of analytical grade.
The α-glucosidase inhibitory activity of the extracts and fractions was determined using a modified procedure reported method with a slight modification. The α-glucosidase activity was measured using the substrate p-nitrophenyl-α-D-glucopyranoside (pNPG), which is hydrolyzed by α-glucosidase to release the product p-nitrophenol, a colorant that can be monitored at 405 nm. The initial concentration of the enzyme solution was 0.62 unit/mL in 0.1 M phosphate buffer (pH 6.9) and the initial concentration of the substrate solution was 2 mM in the same phosphate buffer. The enzyme solution was mixed with water and the samples or controls in a clear 96-well microplate (flat bottom) and the reaction was initiated by addition of the substrate to the solution. The plates were incubated at 37 °C for 5 min and the reaction was terminated by the addition of 0.1 M Na2CO3. […] Background absorbance was determined using a non-enzyme control microplate containing the buffer and was subtracted from the absorbance of the samples and controls.

[10] = isolated compounds, - is no activity

Molecule: COc1cc(-c2oc3cc(O)cc(O)c3c(=O)c2O[C@@H]2O[C@H](CO)[C@@H](O)[C@H](O)[C@H]2O)ccc1O [3′-methoxyhirsutrin]
- IC50 ([1]; read-out: PTP1β inhibitory activity IC50): 64 µM

Molecule: O=c1c(O[C@@H]2O[C@H](CO)[C@@H](O)[C@H](O)[C@H]2O)c(-c2ccc(O)c(O)c2)oc2cc(O)cc(O)c12 [hirsutrin]
- PTP1β inhibitory activity IC50 [1]: no activity

Molecule: O=C(/C=C/c1ccc(O)c(O)c1)O[C@@H]1[C@H](O)C[C@@](O)(C(=O)O)C[C@H]1OC(=O)/C=C/c1ccc(O)c(O)c1 [4,5-di-O-CQA]
- IC50 [2]: 131 µM

Molecule: methyl 4,5-di-O-CQA
- IC50 [2]: 13.1 µM

Molecule: COC(=O)[C@]1(O)C[C@@H](O)[C@@H](OC(=O)/C=C/c2ccc(O)c(O)c2)[C@H](OC(=O)/C=C/c2ccc(O)c(O)c2)C1 [methyl 3,4-di-O-CQA]
- IC50 [2]: 12.2 µM

Molecule: O=C(/C=C/c1ccc(O)c(O)c1)O[C@H]1[C@H](O)C[C@](O)(C(=O)O)C[C@H]1OC(=O)/C=C/c1ccc(O)c(O)c1 [3,4-di-O-CQA]
- IC50 [2]: 187 µM

Molecule: COC(=O)[C@]1(O)C[C@@H](OC(=O)/C=C/c2ccc(O)c(O)c2)[C@@H](O)[C@H](OC(=O)/C=C/c2ccc(O)c(O)c2)C1 [compound 6, methyl-3,5-di-O-caffeoylquinic acid]
- recombinant aldose reductase inhibitory activity [3]: strong
- inhibition at 1 µg/mL ([4]; 1 μg/mL): 24%
- inhibition at 2.5 µg/mL ([4]; 2.5 μg/mL): 30.7%
- inhibition at 5 µg/mL ([4]; 5 μg/mL): 50%
- inhibition at 10 µg/mL ([4]; 10 μg/mL, - is no activity): 82.5%
- fold higher inhibition than positive control sumarin (PTP1β) ([4]; ratio of IC50 (μM) values): 2.93 fold
- rat lens aldose reductase inhibitory activity [5]: strong
- Inhibition (%) AGEs ([6]; 10 μg/mL): 24.24%
- Inhibition (%) AGEs ([6]; 20 μg/mL): 34.59%
- Inhibition (%) AGEs ([6]; 50 μg/mL): 54.77%
- Inhibition (%) AGEs ([6]; 100 μg/mL): 89.47%
- IC50 ([6]; isolated compounds): 82.8 µM
- IC50 AGEs [6, 10]: 43.96 ± 3.89 µg/mL (≈ 82.9 µM)
- fold higher inhibition than positive control aminoguanidine (AGEs) ([6]; ratio of IC50 (μM) values): 17.03 fold
- inhibitory activity on AGEs [7]: strong inhibitory activity
- Inhibition (%) ABTS^+ ([8]; 0.33 μg/mL): 7.49%
- Inhibition (%) ABTS^+ ([8]; 1.66 μg/mL): 33.69%
- Inhibition (%) ABTS^+ ([8]; 8.33 μg/mL): 98.31%
- IC50 ([8]; isolated compounds): 6.03 µM
- IC50 ABTS^+ radical scavenging [8, 10]: 3.20 ± 0.28 µg/mL (≈ 6.03 µM)
- fold higher inhibition than positive control trolox (ABTS^+) ([8]; ratio of IC50 (μM) values): 4.93 fold
- Inhibition (%) α-glucosidase ([9]; 2.5 μg/mL): 22.63%
- Inhibition (%) α-glucosidase ([9]; 5 μg/mL): 40.00%
- Inhibition (%) α-glucosidase ([9]; 12.5 μg/mL): 59.11%
- Inhibition (%) α-glucosidase ([9]; 25 μg/mL): 96.50%
- IC50 ([9]; isolated compounds): 18.4 µM
- IC50 α-glucosidase [9, 10]: 9.78 ± 0.79 µg/mL (≈ 18.4 µM)
- fold higher inhibition than positive control acarbose (α-glucosidase) ([9]; ratio of IC50 (μM) values): 31.74 fold
